Data from patent publication US10167270B2, “Substituted quinazoline compounds and uses thereof for modulating glucocerebrosidase activity” (Northwestern University, priority 2015, dated 2019).
Entries after “also recorded” stand apart in the source; their conditions may differ. Like-named read-outs stand apart in the source and are kept apart here. Blank lines part the entries; values can stand above or below the compound they belong to.

Assays:
wild-type GCase [1] = molecular target: T1, wild-type GCase (Homo sapiens (Human), UniProt P04062); experiment: GCase enzyme activity assay (4MU-β-Glc, no taurocholate); assay type: biochemical
Experimental: In previous studies, high concentrations of taurocholate (4-10 mM) were used to improve the signal in GCase enzyme activity assays^16,27,28. […] Here we describe our modifications of the substituents on the quinazoline ring.
4-Methylumbelliferyl β-D-glucopyranoside (4MU-β-Glc), 4-methylumbelliferyl α-D-glucopyranoside,4-methylumbelliferyl α-D-galactopyranoside, and buffer components were purchased from Sigma-Aldrich (St. Louis, Mo.). The recombinant wild-type GCase enzyme velaglucerase alfa (Vpriv®, Shire Human Genetic Therapies, Inc.), acid α-glucosidase enzyme alglucosidase alfa (Lumizyme®, Genzyme Corporation), α-galactosidase A enzyme agalsidase beta (Fabrazyme®, Genzyme Corporation) were used in activity assays. […] A solution of 1 M sodium hydroxide and 1 M glycine (pH 10) was used as the stop solution for all three enzyme activity assays.
The compounds in DMSO solution (0.5 μL/well) were transferred to a black 96-well plate (the final titration started from 100 μM, a 12 or 24-point 2-fold dilution series). […] After 5 min of incubation at room temperature, the enzyme reaction was initiated by the addition of blue substrate (4MU-13-Glc) (33 μL/well). The final concentration of the blue substrate was 1.5 mM. The blue substrate reaction was terminated by the addition of 33 μL/well stop solution (1 M NaOH and 1 M glycine mixture, pH 10) after 30 min of incubation at 37° C. […] The selected compounds were further assayed under pH 5.0 and pH 7.0 to evaluate their selectivity under various pH conditions.

wild-type GCase [2] = molecular target: T1, wild-type GCase; experiment: Fluorescence thermal shift analysis; assay type: binding; conditions: for stabilization of GCase (melting point change): pH 5.0, in words
Description: Compounds shown to act as pharmacological chaperones for GCase (or other lysosomal enzymes) also stabilize the enzyme against thermal denaturation. A fluorescent thermal shift assay was developed to evaluate the binding affinity of ligands with protein^30. […] The maximum thermal shift of these compounds corresponded to their inhibitory activity at pH 5.0.
A robotic pipeline in the High Throughput Analysis Laboratory (HTAL) was used for protein ligand screening by fluorescence thermal shift (FTS) analysis. The pipeline used a Mosquito robot (TTP Labtech) for protein dispensing and an Echo 550 (Labcyte) to add compounds. Thermal scanning coupled with fluorescence detection was performed on a real-time PCR machine CFX384 (Bio-Rad Laboratories). The assay was run in 384-well PCR plates, using 10 μL citric acid/K2HPO4 buffer (50 mM citric acid, 150 mM K2HPO4, pH 5.0) per well. The assay concentration for protein was 1 μM and that for Sypro Orange (Invitrogen) was 5×. Protein was premixed with Sypro Orange and dispensed to a plate first, and compounds were added. Final concentrations of compounds ranged from 0.5 to 200 μM. Then the plate was sealed with an optical seal, shaken, and centrifuged. The thermal scan was from 10 to 95° C. with a temperature ramp rate of 1.5° C./min. The fluorescence was recorded every 10 sec. Data analysis and report generation were performed using the in-house software excelFTS.

acid α-glucosidase (GAA) = acid α-glucosidase (GAA) (Homo sapiens (Human), UniProt P10253); experiment: Enzyme selectivity assay, acid α-glucosidase; assay type: biochemical; conditions: up to 100 μM
Description: (§1) Louis, Mo.). The recombinant wild-type GCase enzyme velaglucerase alfa ([…] Human Genetic Therapies, Inc.), acid α-glucosidase enzyme alglucosidase alfa (Lumizyme®, Genzyme Corporation), α-galactosidase A enzyme agalsidase beta (Fabrazyme®, Genzyme Corporation) were used in activity assays. […] The acid α-glucosidase and α-galactosidase A enzyme activity assay methods were similar to the GCase enzyme activity assay above with slight modifications.

α-galactosidase A (GLA) = α-galactosidase A (GLA) (Homo sapiens (Human), UniProt P06280); experiment: Enzyme selectivity assay, α-galactosidase A; assay type: biochemical; conditions: up to 100 μM
Description: as §1

GCase [3] = molecular target: T2, GCase (Homo sapiens (Human), UniProt P04062); experiment: Enzyme kinetic assay (resorufin β-D-glucopyranoside); assay type: biochemical; conditions: substrate 30-150 μM
Experimental: We further tested compounds 4 and 11g by measuring GCase activity at various substrate concentrations (30-150 μM) and in the absence or presence of increasing concentrations of GCase inhibitors.
The substrate resorufin β-D-glucopyranoside was diluted to five concentrations, ranging from 30 to 150 μM. Seven concentrations of inhibitors (between 0.5- and 5-fold of IC50 value) and a DMSO control were added to the enzyme solution. The final enzyme concentration was 10 nM to give a linear reaction over 10 min. Enzyme kinetics were measured by the addition of 66 μL of substrate to a 96-well assay plate, followed by 33 μL of enzyme solution (with or without inhibitor) using a dispense module on a Biotek Synergy H1 multi-mode plate reader. The increase in product fluorescence was measured at 1 min intervals for 10 min in the plate reader. The rate of product formation was calculated by converting the fluorescence units to nanomoles of product per minute using a standard curve of the free fluorophore, resorufin.

[4] = molecular target: T3, N370S mutant GCase in patient fibroblasts (Homo sapiens (Human), UniProt P04062, N370S); experiment: GCase protein level in N370S fibroblasts by Western blot; assay type: cell-based; conditions: 3 days treatment
Experimental: (§2) The N370S fibroblast cell line was obtained from Coriell, GM00372, cultured in DMEM medium (Life Tech) including 1% v/v L-glutamine 200 mM (Life Tech), 1% v/v pen strep (Life Tech), 10% FBS (Life Tech) at 37° C. and 5% CO2 and treated with different compounds at 0.2 μM and 2 μM. After a 3-day treatment, cells were washed with inhibitor free media 3 times and fed with inhibitor free media for 1 day, followed by 1% Triton X-100 lysis buffer to lyse cells. Protein concentrations were measured with a Bradford kit (Thermo), and the GCase activity was determined at pH 5.5.
Proteins were denatured in 20% SDS sample buffer at 100° C. for 10 min; 10% Bis-Tris gel (Life Tech) was used for gels; Trans-Blot Turbo PVDF kit (Bio-Rad) was used for membrane transfer, and Chemidoc MP system (Bio-Rad) was used to analyze the blots.

[5] = molecular target: T3, N370S mutant GCase in patient fibroblasts; experiment: GCase activity in N370S fibroblasts after compound treatment; assay type: cell-based; conditions: 3-day treatment
Experimental: as §2

GCase [6] = molecular target: T2, GCase; experiment: Fluorescence polarization assay; assay type: binding
Experimental: The fluorescent probe 3 (25 nL/well, 50 nM final concentration) was transferred to a 384-well black plate using a Labcyte Echo 550 Liquid Handler system. The 25 μL/well enzyme dilutions with GCase enzyme activity buffer were added to the plate, which was shaken at room temperature in dark for 20 min. The final titration was 5 nM to 10 μM, 10 concentrations, 2 times dilution. The fluorescence polarization was measured in Molecular Devices Analyst GT with Ex=535 nm and Em=580 nm, G Factor=1.05.

[7] = pH 5.0, mean ± SD, read-out: IC50 pH 5.0
[8] = pH 5.9, mean ± SD, read-out: IC50 pH 5.9
[9] = pH 7.0, mean ± SD, read-out: IC50 pH 7.0
[10] = Table 5, pH 5.9, mean ± SD, read-out: IC50

T3 sequence (P04062 40-536 N409S): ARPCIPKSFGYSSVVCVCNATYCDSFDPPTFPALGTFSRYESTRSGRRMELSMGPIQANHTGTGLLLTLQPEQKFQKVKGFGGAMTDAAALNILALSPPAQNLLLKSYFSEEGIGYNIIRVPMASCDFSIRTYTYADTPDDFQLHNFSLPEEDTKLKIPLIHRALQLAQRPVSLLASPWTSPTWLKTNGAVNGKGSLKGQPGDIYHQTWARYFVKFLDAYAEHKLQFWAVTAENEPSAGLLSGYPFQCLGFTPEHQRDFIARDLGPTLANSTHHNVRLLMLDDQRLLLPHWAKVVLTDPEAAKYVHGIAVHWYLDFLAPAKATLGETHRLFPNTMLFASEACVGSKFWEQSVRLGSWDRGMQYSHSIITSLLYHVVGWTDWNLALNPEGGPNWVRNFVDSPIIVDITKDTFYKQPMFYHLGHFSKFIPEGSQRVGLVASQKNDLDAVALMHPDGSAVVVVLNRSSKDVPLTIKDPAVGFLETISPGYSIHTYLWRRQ
T2 sequence (P04062 40-536): as the sequence (P04062 40-536 N409S) above, with S370N counted along it
T1 sequence (P04062 40-536): as the sequence (P04062 40-536 N409S) above, with S370N counted along it
Chain of α-galactosidase A (GLA) (P06280 32-429): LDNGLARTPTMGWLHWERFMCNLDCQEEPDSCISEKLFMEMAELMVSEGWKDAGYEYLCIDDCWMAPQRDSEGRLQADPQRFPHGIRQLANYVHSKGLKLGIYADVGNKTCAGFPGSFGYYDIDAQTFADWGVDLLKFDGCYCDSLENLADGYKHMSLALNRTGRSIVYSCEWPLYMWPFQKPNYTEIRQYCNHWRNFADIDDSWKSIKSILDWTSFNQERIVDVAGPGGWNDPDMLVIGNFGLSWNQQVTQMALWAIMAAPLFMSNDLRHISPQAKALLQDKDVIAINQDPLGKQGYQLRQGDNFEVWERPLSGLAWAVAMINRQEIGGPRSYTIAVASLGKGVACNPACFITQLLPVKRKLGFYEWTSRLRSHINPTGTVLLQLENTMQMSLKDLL

SMILES: CN(C)c1ccc2c(-c3ccc(C(=O)NCCCCCC(=O)Nc4ccc(-c5nc(NC6Cc7ccccc7C6)c6ccccc6n5)cc4)cc3C(=O)O)c3ccc(=[N+](C)C)cc-3oc2c1 [compound 158]
Kd (GCase [6]): 79 nM

SMILES: c1cncc(-c2nc(N[C@@H]3CCc4ccccc4C3)c3ccccc3n2)c1 [Compound 9b]
decrease of inhibitory activity at pH 5.0 compared to pH 5.9 (wild-type GCase [1]): 3 fold | stabilization of GCase (melting point change) (wild-type GCase [2]): stabilize wild-type GCase in a dose-dependent manner; also recorded: increased the GCase melting point in a dose-dependent manner | activity of acid α-glucosidase on compound treatment (acid α-glucosidase (GAA)): not significantly changed | activity of α-galactosidase A on compound treatment (α-galactosidase A (GLA)): not significantly changed

SMILES: c1cncc(-c2nc(NC3CCc4ccccc4C3)c3ccccc3n2)c1 (single isomer, unassigned) [Compound 9a]
decrease of inhibitory activity at pH 5.0 compared to pH 5.9 (wild-type GCase [1]): 3 fold | stabilization of GCase (melting point change) (wild-type GCase [2]): stabilize wild-type GCase in a dose-dependent manner; also recorded: increased the GCase melting point in a dose-dependent manner | activity of acid α-glucosidase on compound treatment (acid α-glucosidase (GAA)): not significantly changed | activity of α-galactosidase A on compound treatment (α-galactosidase A (GLA)): not significantly changed

SMILES: CN(C)c1ccc2c(-c3ccc(C(=O)NCCOCCOCC(=O)Nc4ccc(-c5nc(NC6Cc7ccccc7C6)c6ccccc6n5)cc4)cc3C(=O)O)c3ccc(=[N+](C)C)cc-3oc2c1 [compound 159]
Kd (GCase [6]): 126 nM

SMILES: CN(C)c1ccc2c(-c3ccc(C(=O)NCCOCCOCCOCCOCCC(=O)NCCCCCC(=O)Nc4ccc(-c5nc(NC6Cc7ccccc7C6)c6ccccc6n5)cc4)cc3C(=O)O)c3ccc(=[N+](C)C)cc-3oc2c1 [compound 160]
Kd (GCase [6]): 7.1 nM

SMILES: OC[C@H]1CNC[C@@H](O)[C@@H]1O [IFG, Isofagomine, reference compound]
stabilization of GCase (melting point change) (wild-type GCase [2]): stabilize wild-type GCase in a dose-dependent manner | concentration of GCase protein [4]: did not have an effect | GCase activity in patient cells [5]: had no effect

SMILES: c1coc(-c2nc(NC3Cc4ccccc4C3)c3ccccc3n2)c1 [Compound 11h, N-(2,3-dihydro-1H-inden-2-yl)-2-(furan-2-yl)quinazolin-4-amine]
IC50 (wild-type GCase [1]; [10]): 21.1 ± 2.4 nM

SMILES: CN1CCC(Nc2nc(-c3cccnc3)nc3ccccc23)CC1 [Compound 6i]
IC50 (wild-type GCase [1]; Table 1, pH 5.9, mean ± SD): Inactive

SMILES: c1ccc(Nc2nc(-c3cccnc3)nc3ccccc23)cc1 [Compound 8a]
GCase inhibitory activity in words (wild-type GCase [1]): lost activity | IC50 (wild-type GCase [1]; Table 3, pH 5.9, mean ± SD): inactive | stabilization of GCase (melting point change) (wild-type GCase [2]): did not change the melting points significantly

Now from value to compound, other results behind:

IC50 (wild-type GCase [1]; [7]): 8.9 ± 1.3 nM | decrease of inhibitory activity at pH 5.0 compared to pH 5.9 (wild-type GCase [1]; pH 5.0 vs pH 5.9): only dropped slightly | IC50 (wild-type GCase [1]; [8]): 5.2 ± 0.6 nM | IC50 (wild-type GCase [1]; [9]): 6.6 ± 1 nM | maximum thermal shift (wild-type GCase [2]; pH 5.0): around 11 °C | activity of acid α-glucosidase on compound treatment (acid α-glucosidase (GAA)): not significantly changed | activity of α-galactosidase A on compound treatment (α-galactosidase A (GLA)): not significantly changed | type of inhibition (Lineweaver-Burk) (GCase [3]): linear mixed inhibition | GCase activity in patient cells [5]: increased GCase activity
SMILES: c1ccc2c(c1)CC(Nc1nc(-c3ccsc3)nc3ccccc13)C2 [Compound 11g, N-(2,3-dihydro-1H-inden-2-yl)-2-(thiophen-3-yl)quinazolin-4-amine]
stabilization of GCase (melting point change) (wild-type GCase [2]): stabilize wild-type GCase in a dose-dependent manner; also recorded: increased the GCase melting point in a dose-dependent manner | concentration of GCase protein [4]: significantly increased the concentration of GCase

IC50 (wild-type GCase [1]; [10]): 6.5 ± 0.7 nM | IC50 (wild-type GCase [1]; [7]): 10.5 ± 1.5 nM | IC50 (wild-type GCase [1]; [9]): 9.4 ± 1.4 nM | activity of acid α-glucosidase on compound treatment (acid α-glucosidase (GAA)): not significantly changed | activity of α-galactosidase A on compound treatment (α-galactosidase A (GLA)): not significantly changed
SMILES: c1ccc(-c2nc(NC3Cc4ccccc4C3)c3ccccc3n2)cc1 [Compound 11d, N-(2,3-dihydro-1H-inden-2-yl)-2-phenylquinazolin-4-amine]
stabilization of GCase (melting point change) (wild-type GCase [2]): stabilize wild-type GCase in a dose-dependent manner; also recorded: increased the GCase melting point in a dose-dependent manner | concentration of GCase protein [4]: significantly increased the concentration of GCase

IC50 (wild-type GCase [1]; [7]): 13.9 ± 1.9 nM | decrease of inhibitory activity at pH 5.0 compared to pH 5.9 (wild-type GCase [1]; pH 5.0 vs pH 5.9): only dropped slightly | IC50 (wild-type GCase [1]; [8]): 8.2 ± 1 nM | IC50 (wild-type GCase [1]; [9]): 12.9 ± 2 nM | activity of acid α-glucosidase on compound treatment (acid α-glucosidase (GAA)): not significantly changed | activity of α-galactosidase A on compound treatment (α-galactosidase A (GLA)): not significantly changed
SMILES: c1csc(-c2nc(NC3Cc4ccccc4C3)c3ccccc3n2)c1 [Compound 11f, N-(2,3-dihydro-1H-inden-2-yl)-2-(thiophen-2-yl)quinazolin-4-amine]
stabilization of GCase (melting point change) (wild-type GCase [2]): stabilize wild-type GCase in a dose-dependent manner; also recorded: increased the GCase melting point in a dose-dependent manner | concentration of GCase protein [4]: significantly increased the concentration of GCase
